Experimental data taken from ChEMBL document CHEMBL3870336, “The discovery of quinoline based single-ligand human H1 and H3 receptor antagonists” (Bioorg Med Chem Lett, 2016).
Active and inactive are the calls of the source. No cut-off for these calls is given here.

Tests used:
[1] = biological target: T1, Alpha-1B adrenergic receptor (Homo sapiens, UniProt P35368); assay: Antagonist activity at adrenergic alpha1B receptor (unknown origin) expressed in Rat1 cells assessed as inhibition of phenylephrine-induced Ca2+ flux preincubated for 30 mins followed by phenylephrine addition by Fluo-4-AM-dye based FLIPR assay; format: cell-based
T1 sequence (P35368 whole entry): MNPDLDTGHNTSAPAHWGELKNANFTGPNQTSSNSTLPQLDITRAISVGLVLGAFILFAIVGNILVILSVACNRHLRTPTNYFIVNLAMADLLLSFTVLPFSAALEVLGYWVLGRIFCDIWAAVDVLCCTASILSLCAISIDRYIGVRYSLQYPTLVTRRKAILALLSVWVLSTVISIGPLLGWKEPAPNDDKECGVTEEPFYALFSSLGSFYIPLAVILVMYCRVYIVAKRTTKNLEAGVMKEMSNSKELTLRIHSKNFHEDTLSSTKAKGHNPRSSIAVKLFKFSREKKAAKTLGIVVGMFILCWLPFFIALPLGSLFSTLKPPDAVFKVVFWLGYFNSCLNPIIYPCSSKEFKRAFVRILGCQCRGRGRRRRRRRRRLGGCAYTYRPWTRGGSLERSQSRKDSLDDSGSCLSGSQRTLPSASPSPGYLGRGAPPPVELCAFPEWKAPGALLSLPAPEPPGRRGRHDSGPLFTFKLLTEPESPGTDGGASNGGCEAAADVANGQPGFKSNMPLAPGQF

[2] = Lipophilicity, logD of compound at pH 7.4; format: physicochemical; conditions: buffer
[3] = biological target: T2, Alpha-1A adrenergic receptor (Homo sapiens, UniProt P35348); assay: Antagonist activity at adrenergic alpha1A receptor (unknown origin) expressed in Rat1 cells assessed as inhibition of phenylephrine-induced Ca2+ flux preincubated for 30 mins followed by phenylephrine addition by Fluo-4-AM-dye based FLIPR assay; format: cell-based
T2 sequence (P35348 whole entry): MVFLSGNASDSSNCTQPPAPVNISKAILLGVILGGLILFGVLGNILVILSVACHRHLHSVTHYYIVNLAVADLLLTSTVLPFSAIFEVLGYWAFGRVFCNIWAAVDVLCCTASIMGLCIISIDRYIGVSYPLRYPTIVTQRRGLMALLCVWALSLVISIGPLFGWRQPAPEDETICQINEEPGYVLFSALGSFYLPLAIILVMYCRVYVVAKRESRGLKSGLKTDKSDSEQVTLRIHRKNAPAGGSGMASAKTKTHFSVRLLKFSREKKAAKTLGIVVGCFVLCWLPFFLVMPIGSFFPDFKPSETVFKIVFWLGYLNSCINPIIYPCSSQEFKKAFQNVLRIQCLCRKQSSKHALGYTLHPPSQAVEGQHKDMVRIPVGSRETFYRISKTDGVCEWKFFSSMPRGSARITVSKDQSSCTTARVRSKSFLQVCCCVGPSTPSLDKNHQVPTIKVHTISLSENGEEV

[4] = biological target: Voltage-gated inwardly rectifying potassium channel KCNH2 (Homo sapiens, UniProt Q12809); assay: (§1) Displacement of [3H]-dofetilide from human ERG expressed in CHOK1 cell membranes incubated for 4 hrs in dark by luminescent assay; parameters: species or system CHO-K1
[5] = biological target: T3, Histamine H1 receptor (Homo sapiens, UniProt P35367); assay: Antagonist activity at human Histamine H1 receptor expressed in CHO cells assessed as inhibition of histamine-induced calcium flux preincubated for 30 mins followed by histamine addition by Fluo-4-AM dye based FLIPR assay; format: functional, cell-based
[6] = biological target: Histamine H3 receptor (Homo sapiens, UniProt Q9Y5N1); assay: Antagonist activity at human Histamine H3 receptor expressed in CHO cell membranes assessed as inhibition of histamine-induced [35S]GTPgammaS binding after 2 to 6 hrs by scintillation proximity assay; format: functional
[7] = biological target: T3, Histamine H1 receptor; assay: Antagonist activity at human Histamine H1 receptor expressed in CHO cells assessed as inhibition of histamine-induced calcium flux at 100 nM preincubated for 30 mins followed by histamine addition by Fluo-4-AM dye based FLIPR assay; format: functional, cell-based; conditions: read-out: pA2 (converted)
[8] = biological target: T3, Histamine H1 receptor; assay: Antagonist activity at human Histamine H1 receptor expressed in CHO cells preincubated for 30 mins prior to histamine addition followed by subsequent washout and histamine challenge at 270 mins by Fluo-4 dye based FLIPR assay relative to azelastine; format: cell-based
[9] = biological target: T3, Histamine H1 receptor; assay: Antagonist activity at human Histamine H1 receptor expressed in CHO cells preincubated for 30 mins prior to histamine addition followed by subsequent washout and histamine challenge at 90 mins by Fluo-4 dye based FLIPR assay relative to azelastine; format: cell-based
[10] = biological target: hERG (KCNH2) (Homo sapiens, UniProt Q12809); assay: as §1; parameters: species or system CHO-K1; conditions: human, CHO-K1 cell membranes expressing human ERG, probe [3H]-dofetilide
[11] = Ratio of drug level in brain to plasma in rat; format: ADME; conditions: brain and plasma, read-out: BPR

T3 sequence (P35367 whole entry): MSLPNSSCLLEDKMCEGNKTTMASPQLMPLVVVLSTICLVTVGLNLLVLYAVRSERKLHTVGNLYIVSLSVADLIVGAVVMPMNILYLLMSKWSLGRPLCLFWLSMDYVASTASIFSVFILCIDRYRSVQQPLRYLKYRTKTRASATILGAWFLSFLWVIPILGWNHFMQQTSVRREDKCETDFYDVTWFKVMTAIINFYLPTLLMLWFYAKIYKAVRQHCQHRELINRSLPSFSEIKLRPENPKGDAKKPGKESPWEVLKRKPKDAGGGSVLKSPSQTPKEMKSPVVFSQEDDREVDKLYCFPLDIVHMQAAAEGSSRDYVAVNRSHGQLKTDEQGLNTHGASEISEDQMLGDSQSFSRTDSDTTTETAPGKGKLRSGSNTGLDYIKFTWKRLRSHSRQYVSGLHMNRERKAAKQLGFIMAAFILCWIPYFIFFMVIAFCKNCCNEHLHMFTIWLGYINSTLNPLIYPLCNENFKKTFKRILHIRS
Chain of Voltage-gated inwardly rectifying potassium channel KCNH2 (Q12809 whole entry): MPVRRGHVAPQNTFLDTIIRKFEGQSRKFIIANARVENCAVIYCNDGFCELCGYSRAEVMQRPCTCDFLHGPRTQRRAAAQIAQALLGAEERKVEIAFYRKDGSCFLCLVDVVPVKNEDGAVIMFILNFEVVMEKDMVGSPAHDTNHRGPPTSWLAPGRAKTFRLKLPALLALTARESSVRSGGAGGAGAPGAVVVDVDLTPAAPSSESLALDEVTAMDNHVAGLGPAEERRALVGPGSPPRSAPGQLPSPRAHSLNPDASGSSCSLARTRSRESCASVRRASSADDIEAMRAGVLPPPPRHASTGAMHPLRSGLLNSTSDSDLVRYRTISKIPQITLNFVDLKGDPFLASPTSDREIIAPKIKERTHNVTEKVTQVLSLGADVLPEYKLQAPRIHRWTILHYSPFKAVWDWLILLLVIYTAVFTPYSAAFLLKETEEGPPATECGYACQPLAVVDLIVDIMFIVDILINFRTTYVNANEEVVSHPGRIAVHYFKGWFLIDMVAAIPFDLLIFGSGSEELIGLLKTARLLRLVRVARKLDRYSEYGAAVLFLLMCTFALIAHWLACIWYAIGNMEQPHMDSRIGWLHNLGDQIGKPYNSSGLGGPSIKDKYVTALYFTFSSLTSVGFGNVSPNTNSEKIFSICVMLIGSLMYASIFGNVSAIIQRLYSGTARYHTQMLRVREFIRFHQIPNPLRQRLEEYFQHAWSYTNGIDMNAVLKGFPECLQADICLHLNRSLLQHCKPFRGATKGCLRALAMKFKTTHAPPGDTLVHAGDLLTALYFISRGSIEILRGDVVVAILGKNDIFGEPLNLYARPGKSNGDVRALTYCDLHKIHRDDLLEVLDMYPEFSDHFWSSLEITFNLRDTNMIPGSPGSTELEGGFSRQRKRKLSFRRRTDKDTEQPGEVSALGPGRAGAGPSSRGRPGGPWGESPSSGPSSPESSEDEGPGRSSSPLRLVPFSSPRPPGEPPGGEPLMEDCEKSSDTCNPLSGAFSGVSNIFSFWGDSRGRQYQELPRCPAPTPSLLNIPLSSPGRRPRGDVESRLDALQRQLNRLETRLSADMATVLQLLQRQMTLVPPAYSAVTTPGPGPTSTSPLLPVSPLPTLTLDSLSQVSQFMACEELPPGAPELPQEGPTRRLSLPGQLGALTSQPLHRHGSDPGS
Chain of Histamine H3 receptor (Q9Y5N1 whole entry): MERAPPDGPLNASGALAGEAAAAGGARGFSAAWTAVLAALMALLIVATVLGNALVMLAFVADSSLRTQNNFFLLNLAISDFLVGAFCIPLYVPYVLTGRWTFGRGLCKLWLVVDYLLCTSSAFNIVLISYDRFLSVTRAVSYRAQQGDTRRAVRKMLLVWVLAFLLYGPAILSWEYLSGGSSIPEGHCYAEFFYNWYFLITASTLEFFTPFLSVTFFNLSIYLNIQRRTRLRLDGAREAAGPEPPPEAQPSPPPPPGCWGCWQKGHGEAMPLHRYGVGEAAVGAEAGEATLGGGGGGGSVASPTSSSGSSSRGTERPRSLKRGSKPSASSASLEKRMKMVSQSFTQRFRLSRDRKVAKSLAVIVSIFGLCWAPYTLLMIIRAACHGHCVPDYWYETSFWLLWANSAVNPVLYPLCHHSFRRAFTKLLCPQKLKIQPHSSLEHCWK
Chain of hERG (KCNH2) (Q12809 whole entry): as the sequence (Q12809 whole entry) above

SMILES	Ki [1] [nM]	logD [2]	Ki [3] [nM]	IC50 [4] [nM]	Ki [5] [nM]	Ki [6] [nM]	Kb [7] [nM]	inhibition [8]	inhibition [9]	IC50 at 4 h [10] [nM]	Kp [11]
c1cnc2c(N3CCN(CCCc4ccc(OCCCN5CCCCCC5)cc4)CC3)cccc2c1	100	1.8	31.6	1000	79.4	0.398					
CCc1cc(N2CCN(CCc3ccc(OCCCN4CCCCCC4)cc3)CC2)c2nc(CCC(=O)O)ccc2c1	> 2000	1	251		15.8	2	2.51				
O=C(O)c1ccnc2c(N3CCN(CCc4ccc(OCCCN5CCCCCC5)cc4)CC3)cccc12	> 2000	-0.24	> 2000	> 63100	> 2510	1.58					
CCCCc1cc(N2CCN(CCc3ccc(OCCCN4CCCCCC4)cc3)CC2)c2nc(CCC(=O)O)ccc2c1	398	2.3	316	2510	12.6	0.794	1.58				
O=C(O)c1cc(N2CCN(CCc3ccc(OCCCN4CCCCCC4)cc3)CC2)c2ncccc2c1	> 2000	-1	> 2000	39800	> 2510	2					
O=C(O)c1ccc2cccc(N3CCN(CCc4ccc(OCCCN5CCCCCC5)cc4)CC3)c2n1	> 2000	-0.37	> 2000		251	0.501					
O=C(O)CCc1cnc2c(N3CCN(CCc4ccc(OCCCN5CCCCCC5)cc4)CC3)cccc2c1	> 2000	-0.63	> 2000	31600	39.8	1.26					
c1cnc2c(N3CCN(CCCCc4ccc(OCCCN5CCCCCC5)cc4)CC3)cccc2c1	50.1	2.2	79.4	1580	15.8	0.631	5.01	Active	Active		
O=c1c2ccccc2c(Cc2ccc(Cl)cc2)nn1C[C@H]1CCCN1CCCCc1ccc(OCCCN2CCCCCC2)cc1 [GSK-1004723]								Active	Active	50.1	
O=C(O)/C=C/c1ccc2cccc(N3CCN(CCc4ccc(OCCCN5CCCCCC5)cc4)CC3)c2n1	79.4	0.34	63.1	> 63100	200	1.58					
O=C(O)c1ccc2cccnc2c1N1CCN(CCc2ccc(OCCCN3CCCCCC3)cc2)CC1	> 2000	-0.12	> 2000		> 2510	1.26					
O=C(O)CCc1ccc2cccc(N3CCN(CCc4ccc(OCCCN5CCCCCC5)cc4)CC3)c2n1	200	0.18	> 2000	15800	12.6	1.58					
O=C(O)c1cnc2c(N3CCN(CCc4ccc(OCCCN5CCCCCC5)cc4)CC3)cccc2c1	> 2000	-0.78	> 2000	20000	398	1.58					
O=C(O)CCc1ccc2cc(Cc3ccccc3)cc(N3CCN(CCc4ccc(OCCCN5CCCCCC5)cc4)CC3)c2n1	251	1.9	50.1	6310	25.1	0.316	6.31		Active		0.15
c1cnc2c(N3CCN(CCc4ccc(OCCCN5CCCCCC5)cc4)CC3)cccc2c1	15.8	1.9	7.94	7940	20	0.501	10	Active	Active		> 13
